Results: ChEMBL document CHEMBL4346692, “Anti-PqsR compounds as next-generation antibacterial agents against Pseudomonas aeruginosa: A review” (Eur J Med Chem, 2019)
Values belong to the compound of their own block, whether it stands above or below them.

Assays:
[1] = biological target: T1, Transcriptional regulator MvfR (Pseudomonas aeruginosa PA14, UniProt A0A072ZLE6); assay: Inhibition of Pseudomonas aeruginosa PqsR
T1 sequence (A0A072ZLE6 whole entry): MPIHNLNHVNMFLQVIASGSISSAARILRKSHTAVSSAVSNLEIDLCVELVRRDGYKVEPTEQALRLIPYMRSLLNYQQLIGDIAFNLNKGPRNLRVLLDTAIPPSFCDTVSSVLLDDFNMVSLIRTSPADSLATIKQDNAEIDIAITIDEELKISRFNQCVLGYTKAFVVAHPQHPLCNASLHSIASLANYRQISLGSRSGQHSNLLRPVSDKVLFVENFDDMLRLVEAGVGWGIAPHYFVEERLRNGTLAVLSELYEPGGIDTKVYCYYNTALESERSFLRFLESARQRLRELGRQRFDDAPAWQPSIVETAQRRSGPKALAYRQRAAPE

[2] = biological target: T2, 2-heptyl-4(1H)-quinolone synthase PqsD (Pseudomonas aeruginosa, UniProt A0A0C7ACN7); assay: Inhibition of Pseudomonas aeruginosa PqsD
T2 sequence (A0A0C7ACN7 whole entry): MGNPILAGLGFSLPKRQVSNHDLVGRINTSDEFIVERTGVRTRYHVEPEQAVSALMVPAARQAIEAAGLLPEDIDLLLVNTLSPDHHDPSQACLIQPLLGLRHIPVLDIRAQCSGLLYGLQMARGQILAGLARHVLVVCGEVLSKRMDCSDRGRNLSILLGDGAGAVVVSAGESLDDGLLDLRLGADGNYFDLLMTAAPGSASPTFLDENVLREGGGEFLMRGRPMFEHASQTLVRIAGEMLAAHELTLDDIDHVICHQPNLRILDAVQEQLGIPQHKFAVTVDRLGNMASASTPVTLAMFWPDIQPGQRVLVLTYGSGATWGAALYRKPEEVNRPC

[3] = biological target: T3, Transcriptional regulator MvfR (Pseudomonas aeruginosa PA14) (UniProt A0A072ZLE6); assay: Inhibition of Pseudomonas aeruginosa PqsR relative to control; conditions: concentration not given here
T3 sequence (whole entry): T1 sequence (A0A072ZLE6 whole entry)

[4] = Half life in rat hepatic microsomes at 1 uM in presence of NADPH by UPLC-MS/MS analysis; assay type: ADME, Microsome; conditions: liver microsomes
[5] = Half life in human hepatic microsomes at 1 uM in presence of NADPH by UPLC-MS/MS analysis; assay type: ADME, Microsome; conditions: liver microsomes
[6] = biological target: T1, Transcriptional regulator MvfR; assay: Antagonist activity at His6 -tagged Pseudomonas aeruginosa PqsR CBD domain expressed in Escherichia coli Rosetta 2 (DE3)
[7] = Agonist activity at Pseudomonas aeruginosa pqsA delta frame deletion mutant
[8] = Antagonist activity at His6 -tagged Pseudomonas aeruginosa PqsR C87 mutant expressed in Escherichia coli BL21 (DE3) cells by surface plasma resonance method
[9] = Binding affinity to Pseudomonas aeruginosa His6/Sumo-tagged PqsR C87 mutant expressed in Escherichia coli BL21 (DE3) […] cells by surface plasma resonance method

Structure (SMILES): CCCCCCS(=O)(=O)c1nccc(-n2ccnn2)n1
- IC50 [1]: 50 µM
- IC50 [2]: 1.7 µM
- inhibition [3]: 47%

- half-life at 1 µM [4]: < 30 min
- half-life at 1 µM [5]: < 30 min
Structure (SMILES): O=CN1N=C(c2ccccc2)CC1c1cccc(Nc2ccnc3cc(Cl)ccc23)c1 (centres undefined)

Structure (SMILES): CCCCCCCCCc1nc2cc(F)c(F)cc2c(=O)n1N
- IC50 [6]: 1.2 µM

Structure (SMILES): CCCCCCCCCc1nc2cc(F)ccc2c(=O)n1OC
- EC50 [7]: 2.2 µM

Structure (SMILES): CCCCCCCCCc1nc2cc(F)ccc2c(=O)n1N
- IC50 [6]: 3.9 µM

Structure (SMILES): CC(C)(C)c1ccc(C(=O)NO)cc1
- IC50 [8]: 23.6 µM

Structure (SMILES): CCCCCCCc1cc(=O)c2cc(C(F)(F)F)ccc2[nH]1
- Kd [9]: 0.057 µM

Structure (SMILES): CCCCCCCc1[nH]c2ccccc2c(=O)c1O
- EC50 [7]: 1.9 µM

Structure (SMILES): CCCCCCCCCc1nc2cc(Cl)ccc2c(=O)n1N
- IC50 [6]: 5 µM

Structure (SMILES): CS(=O)(=O)c1nccc(-n2cnnn2)n1
- IC50 [1]: 15 µM
- IC50 [2]: 21 µM
